{"source": "paper PMC2697495", "about": "(The Journal of pharmacy and pharmacology, 2008)", "key": {"UGT2B4": {"target": "UGT2B4 (Homo sapiens, UniProt P06133)", "sequence (P06133 24-528)": "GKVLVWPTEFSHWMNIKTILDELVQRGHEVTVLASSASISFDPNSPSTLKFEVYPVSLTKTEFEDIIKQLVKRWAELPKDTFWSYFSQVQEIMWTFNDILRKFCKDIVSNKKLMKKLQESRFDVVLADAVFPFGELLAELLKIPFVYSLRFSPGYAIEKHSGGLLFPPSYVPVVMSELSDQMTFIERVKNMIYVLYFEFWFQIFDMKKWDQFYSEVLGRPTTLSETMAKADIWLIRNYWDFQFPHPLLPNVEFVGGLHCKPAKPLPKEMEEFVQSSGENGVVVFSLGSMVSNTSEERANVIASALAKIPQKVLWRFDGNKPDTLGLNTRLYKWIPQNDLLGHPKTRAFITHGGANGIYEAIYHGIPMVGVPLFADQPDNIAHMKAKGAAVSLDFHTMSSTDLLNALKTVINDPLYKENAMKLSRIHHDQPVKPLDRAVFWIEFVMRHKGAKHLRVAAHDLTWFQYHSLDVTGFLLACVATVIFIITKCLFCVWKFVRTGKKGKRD", "experiment": "Codeine glucuronidation by recombinant UGT2B4", "format": "biochemical", "conditions": "1 mM codeine, n=3"}, "[1]": {"test_system": "endogenous β-glucuronidase, insect cell expressed UGT2B7", "conditions": "recombinant UGT2B7 preparation; 10 mM saccharolactone"}, "HLMs [2]": {"test_system": "HLMs", "conditions": "5 mM saccharolactone, ref Kemp et al 2002; cited from earlier work"}, "UGT2B7": {"target": "T1, UGT2B7 (Homo sapiens, UniProt P16662)", "T1 sequence (P16662 24-529)": "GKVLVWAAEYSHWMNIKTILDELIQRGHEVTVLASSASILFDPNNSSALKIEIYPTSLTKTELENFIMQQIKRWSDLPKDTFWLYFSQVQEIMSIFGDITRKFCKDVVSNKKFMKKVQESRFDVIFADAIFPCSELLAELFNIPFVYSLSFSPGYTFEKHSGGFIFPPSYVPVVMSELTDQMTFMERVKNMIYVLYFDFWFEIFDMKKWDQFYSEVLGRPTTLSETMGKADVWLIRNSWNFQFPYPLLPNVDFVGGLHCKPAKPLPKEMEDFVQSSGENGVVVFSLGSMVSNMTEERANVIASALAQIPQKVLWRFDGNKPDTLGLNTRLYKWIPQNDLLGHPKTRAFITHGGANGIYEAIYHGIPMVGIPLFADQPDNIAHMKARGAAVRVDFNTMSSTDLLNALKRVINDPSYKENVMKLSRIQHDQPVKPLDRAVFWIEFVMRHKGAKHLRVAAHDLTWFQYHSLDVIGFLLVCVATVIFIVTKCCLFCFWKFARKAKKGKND", "experiment": "Estradiol-17 glucuronidation by recombinant UGT2B7", "format": "biochemical", "conditions": "for Estradiol-17 glucuronidation, % of the control activity (measured at 0 mM): UGT2B7, 100 μM estradiol, n=3"}, "[3]": {"experiment": "Effect of saccharolactone on pH of 50 mM potassium phosphate incubation buffer", "format": "physicochemical"}, "[4]": {"test_system": "endogenous β-glucuronidase, insect cell expressed UGT1A1", "conditions": "recombinant UGT1A1 preparation; 10 mM saccharolactone"}, "[5]": {"test_system": "pooled human liver microsomes (pHLMs)", "experiment": "e-4-hydroxy-tamoxifen glucuronidation by pHLMs", "format": "biochemical", "conditions": "20 mM saccharolactone, pH-adjusted to 7.5"}, "[6]": {"test_system": "pooled human liver microsomes (pHLMs)", "experiment": "Trifluoperazine glucuronidation by pHLMs", "format": "biochemical", "conditions": "pHLM, 200 μM trifluoperazine, n=3"}, "UGT1A1": {"target": "T2, UGT1A1 (Homo sapiens, UniProt P22309)", "T2 sequence (P22309 26-533)": "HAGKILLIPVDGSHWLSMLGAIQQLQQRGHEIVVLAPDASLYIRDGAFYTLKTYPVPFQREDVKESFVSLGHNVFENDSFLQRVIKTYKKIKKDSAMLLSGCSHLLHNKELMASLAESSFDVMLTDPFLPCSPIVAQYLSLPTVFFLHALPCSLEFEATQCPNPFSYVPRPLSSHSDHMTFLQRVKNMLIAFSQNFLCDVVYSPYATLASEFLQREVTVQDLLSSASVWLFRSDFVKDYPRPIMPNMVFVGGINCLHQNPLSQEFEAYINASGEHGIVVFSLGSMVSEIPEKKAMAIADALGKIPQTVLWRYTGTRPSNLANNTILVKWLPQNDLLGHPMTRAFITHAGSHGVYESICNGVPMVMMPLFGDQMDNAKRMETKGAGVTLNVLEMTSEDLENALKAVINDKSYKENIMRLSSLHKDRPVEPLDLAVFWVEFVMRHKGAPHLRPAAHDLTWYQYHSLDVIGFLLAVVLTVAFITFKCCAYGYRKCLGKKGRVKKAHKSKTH", "experiment": "Estradiol-3 glucuronidation by recombinant UGT1A1", "format": "biochemical", "conditions": "for Estradiol-3 glucuronidation, % of the control activity (measured at 0 mM): UGT1A1, 100 μM estradiol, n=3"}, "UGT1A6 (HEK293)": {"target": "T3, UGT1A6 (HEK293) (Homo sapiens, UniProt P19224)", "T3 sequence (P19224 27-532)": "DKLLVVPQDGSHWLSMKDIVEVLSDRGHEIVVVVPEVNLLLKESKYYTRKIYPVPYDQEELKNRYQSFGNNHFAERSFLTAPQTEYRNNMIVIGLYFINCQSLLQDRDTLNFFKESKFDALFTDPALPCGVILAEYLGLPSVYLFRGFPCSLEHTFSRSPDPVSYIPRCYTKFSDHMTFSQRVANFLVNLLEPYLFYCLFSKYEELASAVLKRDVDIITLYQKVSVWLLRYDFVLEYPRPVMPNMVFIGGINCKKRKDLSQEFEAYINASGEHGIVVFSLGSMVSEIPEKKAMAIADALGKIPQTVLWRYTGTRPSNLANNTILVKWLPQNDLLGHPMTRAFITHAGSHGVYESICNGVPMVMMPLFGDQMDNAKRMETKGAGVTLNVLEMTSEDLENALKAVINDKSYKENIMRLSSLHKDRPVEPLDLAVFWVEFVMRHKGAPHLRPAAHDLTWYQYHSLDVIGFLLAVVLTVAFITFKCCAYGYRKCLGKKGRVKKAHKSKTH", "experiment": "5-HT glucuronidation by recombinant UGT1A6", "format": "biochemical", "conditions": "for 5-HT glucuronidation, % of the control activity (measured at 0 mM): UGT1A6 (HEK293), 4 mM 5-HT, n=3"}, "HLMs [7]": {"test_system": "HLMs", "conditions": "5 mM saccharolactone, ref Alkharfy & Frye 2001; cited from earlier work"}, "[8]": {"test_system": "pooled human liver microsomes (pHLMs)", "experiment": "AZT glucuronidation by pHLMs", "format": "biochemical", "conditions": "pHLM, 500 μM AZT, n=3"}}, "note": "Marks after values point to notes of the source that are not given here."}
{"smiles": "O=C(O)[C@@H](O)[C@H]1OC(=O)[C@H](O)[C@H]1O", "note": "[saccharolactone, D-saccharic acid 1,4-lactone]", "values": [{"measurement": "Codeine glucuronidation, % of the control activity (measured at 0 mM)", "setting": "UGT2B4; 5 mM saccharolactone", "value": "91±4", "unit": "%"}, {"measurement": "Codeine glucuronidation, % of the control activity (measured at 0 mM)", "setting": "UGT2B4; 20 mM saccharolactone", "value": "88±2", "unit": "%"}, {"measurement": "inhibition of estradiol glucuronide hydrolysis", "setting": "[1]", "value": "effective in the inhibition of hydrolysis"}, {"measurement": "effect on raloxifene glucuronidation", "setting": "HLMs [2]", "value": "inhibited"}, {"measurement": "Estradiol-17 glucuronidation, % of the control activity (measured at 0 mM)", "setting": "UGT2B7; 5 mM saccharolactone", "value": "97±2", "unit": "%"}, {"measurement": "Estradiol-17 glucuronidation, % of the control activity (measured at 0 mM)", "setting": "UGT2B7; 20 mM saccharolactone", "value": "87±7 ^a %"}, {"measurement": "reduction in estradiol-17 glucuronidation activity", "setting": "UGT2B7; recombinant UGT2B7, 20 mM saccharolactone, p<0.05", "value": 13, "unit": "%"}, {"measurement": "pH of incubation buffer after adding saccharolactone", "setting": "[3]; 20 mM saccharolactone in 50 mM potassium phosphate, initially pH 7.5", "value": 6.8}, {"measurement": "effect on pH of incubation buffer", "setting": "[3]; saccharolactone up to 5 mM in 50 mM potassium phosphate pH 7.5", "value": "minimal effect on pH"}, {"measurement": "inhibition of estradiol glucuronide hydrolysis", "setting": "[4]", "value": "effective in the inhibition of hydrolysis"}, {"measurement": "decrease in e-4-hydroxy-tamoxifen glucuronidation activity", "setting": "[5]", "value": 17, "unit": "%"}, {"measurement": "Trifluoperazine glucuronidation, % of the control activity (measured at 0 mM)", "setting": "[6]; 1 mM saccharolactone", "value": "98±5", "unit": "%"}, {"measurement": "Trifluoperazine glucuronidation, % of the control activity (measured at 0 mM)", "setting": "[6]; 2 mM saccharolactone", "value": "101±9", "unit": "%"}, {"measurement": "Trifluoperazine glucuronidation, % of the control activity (measured at 0 mM)", "setting": "[6]; 5 mM saccharolactone", "value": "95±3", "unit": "%"}, {"measurement": "Trifluoperazine glucuronidation, % of the control activity (measured at 0 mM)", "setting": "[6]; 10 mM saccharolactone", "value": "93±4", "unit": "%"}, {"measurement": "Trifluoperazine glucuronidation, % of the control activity (measured at 0 mM)", "setting": "[6]; 20 mM saccharolactone", "value": "97±5", "unit": "%"}, {"measurement": "Estradiol-3 glucuronidation, % of the control activity (measured at 0 mM)", "setting": "UGT1A1; 5 mM saccharolactone", "value": "92±2", "unit": "%"}, {"measurement": "Estradiol-3 glucuronidation, % of the control activity (measured at 0 mM)", "setting": "UGT1A1; 20 mM saccharolactone", "value": "87±5", "unit": "%"}, {"measurement": "effect on estradiol glucuronidation", "setting": "UGT1A1; recombinant UGT1A1", "value": "no effect"}, {"measurement": "5-HT glucuronidation, % of the control activity (measured at 0 mM)", "setting": "UGT1A6 (HEK293); 5 mM saccharolactone", "value": "91±6", "unit": "%"}, {"measurement": "5-HT glucuronidation, % of the control activity (measured at 0 mM)", "setting": "UGT1A6 (HEK293); 20 mM saccharolactone", "value": "90±7", "unit": "%"}, {"measurement": "effect on 5-hydroxytryptamine glucuronidation", "setting": "UGT1A6 (HEK293); UGT1A6 expressed in mammalian (HEK293) cells, saccharolactone up to 20 mM", "value": "no effect"}, {"measurement": "decrease of acetaminophen glucuronidation", "setting": "HLMs [7]", "value": 45, "unit": "%"}, {"measurement": "AZT glucuronidation, % of the control activity (measured at 0 mM)", "setting": "[8]; 1 mM saccharolactone", "value": "96±2", "unit": "%"}, {"measurement": "AZT glucuronidation, % of the control activity (measured at 0 mM)", "setting": "[8]; 2 mM saccharolactone", "value": "98±2", "unit": "%"}, {"measurement": "AZT glucuronidation, % of the control activity (measured at 0 mM)", "setting": "[8]; 5 mM saccharolactone", "value": "94±2", "unit": "%"}, {"measurement": "AZT glucuronidation, % of the control activity (measured at 0 mM)", "setting": "[8]; 10 mM saccharolactone", "value": "94±3", "unit": "%"}, {"measurement": "AZT glucuronidation, % of the control activity (measured at 0 mM)", "setting": "[8]; 20 mM saccharolactone", "value": "94±1", "unit": "%"}]}
